Experimental data as given in article PMC12040169 (PLOS Biology, 2025).

Test: in vitro
Conditions: human, hela cells, % viability

Structure (SMILES)	viability at 28.5 h, 10 µM
CN1CCC(N2CCN(C(=O)Nc3ccc4c(c3)OCCO4)CC2)CC1 [CBK155898]	87%
CC(C)CNC(=O)N1CCN(C2CCN(C)CC2)CC1 [CBK155902]	95.3%
CC(C)C(=O)N1CCC(OCc2ccc(-c3ccc(C(=O)N(C)C)cc3)cc2S(C)(=O)=O)CC1 [CBK155921]	102%
CC(C)(C)COC(=O)N1CCC2(CC1)CC(=O)N(Cc1ccc(S(C)(=O)=O)cc1)C2=O [CBK155949]	91.4%
COc1ccc(OC(=O)N2CCC3(CC2)CC(=O)N(Cc2ccc(S(C)(=O)=O)cc2)C3=O)cc1 [CBK155952]	99.3%
CN(C)C(=O)N1CCC2(CC1)CC(=O)N(Cc1ccc(S(C)(=O)=O)cc1)C2=O [CBK155957]	104%
COc1ccc(CNC(=O)N2CCCCC2CO)cc1OC (stereo not drawn) [CBK155981]	92.8%
COc1cc(NC(=O)N2CCCCC2CO)cc(OC)c1OC (stereo not drawn) [CBK155986]	92%
CC(NC(=O)N1CCCCC1CO)c1ccccc1 (stereo not drawn) [CBK155988]	93.1%
O=C(Nc1cccnc1)N1CCCCC1CO (stereo not drawn) [CBK155990]	96.9%
CSCCCNC(=O)N(C)C1CCN(C)C1 (stereo not drawn) [CBK155995]	104%
CN1CCC(N(C)C(=O)NCCN2CCOCC2)C1 (stereo not drawn) [CBK156002]	96.3%
COc1ccc2[nH]cc(CCNC(=O)N(C)C3CCN(C)C3)c2c1 (stereo not drawn) [CBK156004]	112%
CN1CCC(N(C)C(=O)NCc2ccc(C#N)cc2)C1 (stereo not drawn) [CBK156005]	89.3%
COc1ccc(CCNC(=O)N(C)C2CCN(C)C2)cc1OC (stereo not drawn) [CBK156007]	97.9%
CN1CCC(N(C)C(=O)NCCc2c[nH]c3ccccc23)C1 (stereo not drawn) [CBK156012]	85.4%
CN1CCC(N(C)C(=O)NCCOc2ccccc2)C1 (stereo not drawn) [CBK156018]	107%
COc1ccc(CNC(=O)N(C)C2CCN(C)C2)cc1OC (stereo not drawn) [CBK156020]	97.6%
CN1CCC(N(C)C(=O)NCCCN2CCCC2=O)C1 (stereo not drawn) [CBK156021]	92.3%
Cc1cc(CNC(=O)N2CCCC(CO)C2)no1 (stereo not drawn) [CBK156028]	94.5%
O=C(NCc1cccc(C(F)(F)F)c1)N1CCCC(CO)C1 (stereo not drawn) [CBK156033]	89.5%

Structure (SMILES)	viability at 28.5 h, 10 µM
O=C(NCc1ccc2c(c1)OCO2)N1CCCC(CO)C1 (stereo not drawn) [CBK156034]	104%
O=C(NCc1cccc2ccccc12)N1CCCC(CO)C1 (stereo not drawn) [CBK156035]	112%
O=C(NC(c1ccccc1)c1ccccc1)N1CCCC(CO)C1 (stereo not drawn) [CBK156036]	95.4%
N#Cc1ccc(CNC(=O)N2CCCC(CO)C2)cc1 (stereo not drawn) [CBK156043]	94.3%
O=C(Nc1ccc2[nH]ccc2c1)N1CCCC(CO)C1 (stereo not drawn) [CBK156044]	86.8%
CC(=O)Nc1cccc(NC(=O)N2CCCC(CO)C2)c1 (stereo not drawn) [CBK156049]	108%
O=C(NCc1c(Cl)cccc1Cl)N1CCCC(CO)C1 (stereo not drawn) [CBK156054]	95.7%
O=C(NCCOc1ccccc1)N1CCCC(CO)C1 (stereo not drawn) [CBK156058]	99.6%
O=C1CCCN1CCCNC(=O)N1CCCC(CO)C1 (stereo not drawn) [CBK156063]	94.3%
CC(NC(=O)N1CCCC(CO)C1)c1ccccc1 (stereo not drawn) [CBK156066]	87.1%
O=C(Nc1cccnc1)N1CCCC(CO)C1 (stereo not drawn) [CBK156068]	92.4%
O=C(O)C1CCN(C(=O)NCc2ccc(F)cc2)CC1 [CBK156070]	117%
COc1cc(NC(=O)N2CCC(C(=O)O)CC2)cc(OC)c1OC [CBK156076]	97.8%
Cc1ccc(NC(=O)N2CCC(C(=O)O)CC2)cc1 [CBK156077]	105%
CS(=O)(=O)c1ccc(-c2ccc3c(c2)C(=O)NC(C2CCN(C(=O)OCc4ccccc4)CC2)O3)cc1 (stereo not drawn) [CBK156087]	98.1%
CN1CCC(N2CCN(C(=O)NCC(c3ccccc3)c3ccccc3)CC2)CC1 [CBK156096]	92.5%
CN1CCC(N2CCN(C(=O)NCCOc3ccccc3)CC2)CC1 [CBK156098]	86.9%
CN1CCC(N2CCN(C(=O)NC3CCc4ccccc43)CC2)CC1 (stereo not drawn) [CBK156110]	106%
O=C(c1cccnc1NCc1ccc2c(c1)OCO2)N1CCNCC1 [CBK156112T]	104%
CCN(CC)C(=O)C1CCCN(C(=O)NCCCN2CCN(C)CC2)C1 (stereo not drawn) [CBK156115]	89.7%
CCN(CC)C(=O)C1CCCN(C(=O)NCCCSC)C1 (stereo not drawn) [CBK156118]	95.1%

Structure (SMILES)	viability at 28.5 h, 10 µM
CCN(CC)C(=O)C1CCCN(C(=O)NCc2ccc(Cl)c(Cl)c2)C1 (stereo not drawn) [CBK156119]	98.8%
CCN(CC)C(=O)C1CCCN(C(=O)NCCc2c[nH]cn2)C1 (stereo not drawn) [CBK156124]	96.9%
CCN(CC)C(=O)C1CCCN(C(=O)NC(c2ccccc2)c2ccccc2)C1 (stereo not drawn) [CBK156125]	106%
CCN(CC)C(=O)C1CCCN(C(=O)NCc2ccc(C#N)cc2)C1 (stereo not drawn) [CBK156132]	102%
CCN(CC)C(=O)C1CCCN(C(=O)Nc2ccc3[nH]ccc3c2)C1 (stereo not drawn) [CBK156133]	98%
CCN(CC)C(=O)C1CCCN(C(=O)NCCc2ccc(OC)c(OC)c2)C1 (stereo not drawn) [CBK156134]	97.7%
CCN(CC)C(=O)C1CCCN(C(=O)Nc2ccc3c(c2)OCCO3)C1 (stereo not drawn) [CBK156135]	92.3%
CCN(CC)C(=O)C1CCCN(C(=O)Nc2ccc(Cl)cc2)C1 (stereo not drawn) [CBK156136]	90.1%
CCN(CC)C(=O)C1CCCN(C(=O)NCCc2c[nH]c3ccccc23)C1 (stereo not drawn) [CBK156140]	99.8%
CCN(CC)C(=O)C1CCCN(C(=O)NCC(c2ccccc2)c2ccccc2)C1 (stereo not drawn) [CBK156145]	94.4%
CCN(CC)CCCNC(=O)N1CCCC(C(=O)N(CC)CC)C1 (stereo not drawn) [CBK156149]	94.1%
CCOC(=O)CCCNC(=O)N1CCCC(C(=O)N(CC)CC)C1 (stereo not drawn) [CBK156158]	92.3%
CCOC(=O)N1CCC(NC(=O)N2CCCC(C(=O)N(CC)CC)C2)CC1 (stereo not drawn) [CBK156159]	109%
O=C(NCc1ccc2c(c1)OCO2)N1CCCCC1CO (stereo not drawn) [CBK156166]	89.3%
O=C(NCc1cccnc1)N1CCCCC1CO (stereo not drawn) [CBK156169]	105%
O=C(Nc1ccc2c(c1)OCCO2)N1CCCCC1CO (stereo not drawn) [CBK156178]	105%
O=C(Nc1ccccc1Cl)N1CCCCC1CO (stereo not drawn) [CBK156180]	91.9%
O=C(NCc1c(Cl)cccc1Cl)N1CCCCC1CO (stereo not drawn) [CBK156184]	99.5%
NC(=O)c1ccc(NC(=O)N2CCCCC2CO)cc1 (stereo not drawn) [CBK156185]	83%
O=C(NCC(c1ccccc1)c1ccccc1)N1CCCCC1CO (stereo not drawn) [CBK156186]	93.5%
COc1ccc(CCNC(=O)N2CCCCC2CO)cc1 (stereo not drawn) [CBK156188]	92.8%

Structure (SMILES)	viability at 28.5 h, 10 µM
CC(=O)NCc1cccc(-c2cc(C(=O)O)cnc2-c2ccc(Cl)cc2)c1 [CBK156194]	90.9%
O=C(NCc1cccs1)c1ccc(-c2ccc(OC(F)(F)F)cc2)nc1 [CBK156221]	90%
O=C(NCCc1ccc(O)cc1)c1ccc(-c2ccc(OC(F)(F)F)cc2)nc1 [CBK156224]	95.8%
CCNC(=O)c1ccc(-c2ccc(OC(F)(F)F)cc2)nc1 [CBK156230]	110%
CN1CCCC1CCNC(=O)c1ccc(-c2ccoc2)nc1 (stereo not drawn) [CBK156255]	99.8%
CN1CCN(CCCNC(=O)c2ccc(-c3ccoc3)nc2)CC1 [CBK156257]	93.3%
Cc1cnc(CNC(=O)c2ccc(-c3ccoc3)nc2)cn1 [CBK156267]	109%
O=C(NCc1ccco1)c1ccc(-c2ccoc2)nc1 [CBK156279]	105%
O=C(c1ccc(-c2ccoc2)nc1)N1CCCC1 [CBK156284]	84.6%
COc1ccc(NC(=O)NS(=O)(=O)c2sc3ccc(Cl)cc3c2C)cc1OC [CBK156300]	91.3%
O=S(=O)(Nc1ccc2[nH]ccc2c1)c1cc(C(F)(F)F)cc(C(F)(F)F)c1 [CBK156330]	102%
O=S(=O)(c1ccccc1)n1cc2c3c(cccc31)CN(CCO)C2 [CBK156333T]	106%
CCOC(=O)N1CCC(NC(=O)N2CCCC(CO)C2)CC1 (stereo not drawn) [CBK156345]	90.6%
CSCCCNC(=O)N(CCC#N)C1CCCCC1 [CBK156348]	104%
N#CCCN(C(=O)NCc1ccc(Cl)c(Cl)c1)C1CCCCC1 [CBK156349]	85.5%
N#CCCN(C(=O)NCc1cccc(C(F)(F)F)c1)C1CCCCC1 [CBK156350]	96.8%
N#CCCN(C(=O)NCc1ccc2c(c1)OCO2)C1CCCCC1 [CBK156351]	98.7%
COCCNC(=O)N(CCC#N)C1CCCCC1 [CBK156358]	97.3%
COc1ccc(CCNC(=O)N(CCC#N)C2CCCCC2)cc1OC [CBK156363]	108%
N#CCCN(C(=O)Nc1ccc2c(c1)OCCO2)C1CCCCC1 [CBK156364]	92.3%
N#CCCN(C(=O)Nc1ccc(Cl)cc1)C1CCCCC1 [CBK156365]	89.1%
